{"source": "PubChem BioAssay AID463206", "about": "(Broad Institute, 2010)", "note": "Calls of active or inactive are those of the source.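 The calls were made as follows: active = caspase luminescence falls with dose and the half-maximal concentration AC50 from the fitted curve is at or below a set limit; inconclusive = flat fit at 30 to 70% signal loss, or invalid fit; inactive = AC50 above the limit, or signal rises instead.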", "data": [{"test_system": "INS-1E cytokine-induced caspase-3/7, Caspase-Glo luminescence, 48 h", "test": "inhibitors of cytokine-induced caspase-3/7 activity, dose response, orthogonal assay for beta-cell apoptosis protection project, INS-1E rat cells, luminescence (AID 463206)", "values": [{"smiles": "c1ccc(-c2nnc(-c3ccccn3)nc2NC2CCCCC2)cc1", "AC50": "> 26 µM (inactive)"}, {"smiles": "Cc1ccc(N=Cc2c(C)[nH]n(-c3nc4ccccc4[nH]3)c2=O)cc1", "AC50": "> 26 µM (inactive)"}, {"smiles": "CC(=O)c1c(C)[nH]c(C(=O)OCCCCN2C(=O)c3ccccc3C2=O)c1C", "AC50": "> 26 µM (inactive)"}, {"smiles": "Cc1cc(-c2ccccc2)cc(-c2ccccc2)[n+]1CCc1ccccc1", "AC50": "> 26 µM (inactive)"}, {"smiles": "O=[N+]([O-])c1cc(/C=N/Nc2nc3ccccc3[nH]2)c(O)cc1O", "AC50": "> 26 µM (inactive)"}, {"smiles": "Cc1nc(NCCc2ccc(S(N)(=O)=O)cc2)c2c(C)c(C)sc2n1", "AC50": "> 26 µM (inactive)"}, {"smiles": "Cc1ccc(C2CC(c3ccc(C)cc3)n3nc(N)nc3N2)cc1", "note": "(stereo unspecified)", "AC50": "> 26 µM (inactive)"}, {"smiles": "COc1ccccc1NS(=O)(=O)c1cccc(NC(=O)c2[nH]c(C)c(C(C)=O)c2C)c1", "AC50": "> 26 µM (inactive)"}, {"smiles": "O=C(NCc1nc2ccccc2[nH]1)C1=C[C@@H](C2CCCCC2)C[C@@H](OCc2ccc(CO)cc2)O1", "AC50": "> 26 µM (inactive)"}, {"smiles": "Cc1ccc(NC2=CC(=O)C(=O)c3ccccc32)c(C)c1", "AC50": "> 26 µM (inactive)"}, {"smiles": "Nc1c(N(CCC2=CCCCC2)C(=O)COc2ccc(F)cc2)c(=O)[nH]c(=O)n1Cc1ccccc1", "AC50": "> 26 µM (inactive)"}, {"smiles": "O=C(N/N=C(\\c1ccccc1)c1ccccn1)c1ccccc1Cl", "AC50": "> 26 µM (inactive)"}, {"smiles": "CCC(=O)N1c2ccc(S(=O)(=O)N3CCN(c4ccc([N+](=O)[O-])cc4)CC3)cc2CC1C", "note": "(stereo unspecified)", "AC50": "> 26 µM (inactive)"}, {"smiles": "C/C(=N\\NC(=O)C(C)n1nc(C)c([N+](=O)[O-])c1C)c1ccccc1O", "note": "(stereo unspecified)", "AC50": "> 26 µM (inactive)"}, {"smiles": "CCCCCCCCCCOC(=O)C[N+](C)(C)C/C=C(/C)Cl", "AC50": "> 26 µM (inactive)"}, {"smiles": "Clc1cc2cccnc2c2ncccc12", "AC50": "> 26 µM (inactive)"}, {"smiles": "CCN(Cc1ccccc1)C(c1cccs1)c1nnnn1C1CCCCC1", "note": "(stereo unspecified)", "AC50": "> 26 µM (inactive)"}, {"smiles": "C#CCOCCOCCOCCNc1nc(N2CCN(C(=O)CCCCCCCCCCNC(=O)[C@H](CCCCN)n3cc(C)nn3)CC2)nc(N2CCN(C(=O)CCCCCCCCCCNC(=O)[C@@H]([C@H](C)CC)n3cc(CCCCCN)nn3)CC2)n1", "AC50": "> 26 µM (inactive)"}, {"smiles": "Clc1ccc(SCc2cc(N3CCOCC3)nc(-c3ccccn3)n2)cc1", "AC50": "> 26 µM (inactive)"}, {"smiles": "O=C(c1ccco1)N1N=C(c2ccc(Br)cc2)CC1c1ccco1", "note": "(stereo unspecified)", "AC50": "> 26 µM (inactive)"}, {"smiles": "CC1(C)CC(N2CCN(Cc3ccccc3)CC2)=CC(=[N+]2CCCCC2)C1", "AC50": "> 26 µM (inactive)"}, {"smiles": "O=c1c(Cl)c2oc3ccccc3nc-2c2ccccc12", "AC50": "> 26 µM (inactive)"}, {"smiles": "COc1ccc(-c2cc3ccccc3oc2=O)cc1NC(=O)c1ccc([N+](=O)[O-])o1", "AC50": "> 26 µM (inactive)"}, {"smiles": "COC(=O)C1=C(C)N(Cc2ccccc2)C(=NCc2cccc(Cl)c2)N[C@H]1c1cccc(F)c1", "AC50": "> 26 µM (inactive)"}, {"smiles": "CCOC(=O)C(=CNc1ccc(C(O)(C(=O)OCC)C(F)(F)F)cc1C)C(=O)OCC", "note": "(stereo unspecified)", "AC50": "> 26 µM (inactive)"}, {"smiles": "C/C(=N\\NC(=O)c1ccccc1OCc1ccc(F)cc1)c1ccccn1", "AC50": "> 26 µM (inactive)"}, {"smiles": "CC1CCC(C(C)C)C(OC(=O)Cn2c(COc3ccccc3)[n+](C)c3ccccc32)C1", "note": "(stereo unspecified)", "AC50": "> 26 µM (inactive)"}, {"smiles": "CCN(CC)CCOC(=O)c1ccc(N/C=C(/C#N)c2nc(-c3ccc4c(c3)OCO4)cs2)cc1", "AC50": "> 26 µM (inactive)"}, {"smiles": "C/C(=N\\N1C(=O)c2ccccc2NC1c1ccccc1)c1ccccc1O", "note": "(stereo unspecified)", "AC50": "> 26 µM (inactive)"}, {"smiles": "COc1cc(OC)c(NC2=CC(=O)C(=O)c3ccccc32)cc1Cl", "AC50": "> 26 µM (inactive)"}, {"smiles": "CCOc1ccc(-n2c(-c3ccc(OC)cc3)c[n+]3c2CCCCC3)cc1", "AC50": "> 26 µM (inactive)"}, {"smiles": "CC1(C)CCN2CCC(C)(C)c3c(O)ccc1c32", "AC50": "> 26 µM (inactive)"}, {"smiles": "N#C/C(N=Nc1ccccc1O)=N\\Nc1ccccc1O", "AC50": "> 26 µM (inactive)"}, {"smiles": "CC(=O)NC(c1cc(Cl)c2cccnc2c1O)C1CC1", "note": "(stereo unspecified)", "AC50": "> 26 µM (inactive)"}, {"smiles": "CCCOc1ccc(/C=N/Nc2cc(N3CCOCC3)ncn2)c(O)c1", "AC50": "> 26 µM (inactive)"}, {"smiles": "NNc1ncnc2scc(-c3ccc(Cl)cc3)c12", "AC50": "> 26 µM (inactive)"}, {"smiles": "CCC(C)(C)c1ccc(OCCCC[n+]2cccc(C)c2C)c(C(C)(C)CC)c1", "AC50": "> 26 µM (inactive)"}, {"smiles": "CCCC(=O)NC(c1ccc(N(C)C)cc1)c1ccc2cccnc2c1O", "note": "(stereo unspecified)", "AC50": "> 26 µM (inactive)"}, {"smiles": "c1nc(NCc2ccc3c(c2)OCO3)c2cc(-c3ccc4c(c3)OCCO4)ccc2n1", "AC50": "> 26 µM (inactive)"}, {"smiles": "O=C(N/N=C/c1cnc(N2CCCCC2)s1)c1ccc(C(F)(F)F)cc1", "AC50": "> 26 µM (inactive)"}, {"smiles": "CNC[C@H](Cc1ccccc1)NC[C@@H](Cc1cccc2ccccc12)NCCc1ccc(C)cc1", "AC50": "> 26 µM (inactive)"}, {"smiles": "CCOc1ccc(-n2c(=O)[nH]cc(C(=O)Nc3ccc(OC)c(OC)c3)c2=O)cc1", "AC50": "> 26 µM (inactive)"}, {"smiles": "Cn1c(NN=O)nc2ccccc21", "AC50": "> 26 µM (inactive)"}, {"smiles": "CCN(CC)S(=O)(=O)c1ccc(NC(=O)Nc2cccc(C(F)(F)F)c2)cc1", "AC50": "> 26 µM (inactive)"}, {"smiles": "O=C(CNc1cccc2ccccc12)N/N=C/c1ccc([N+](=O)[O-])o1", "AC50": "> 26 µM (inactive)"}, {"smiles": "O=[N+]([O-])c1ccc(-n2cnc3ccccc32)c([N+](=O)[O-])c1", "AC50": "> 12 µM (inactive)"}, {"smiles": "Cc1sc2ncnc(N3CCN(CCOc4ccc(Cl)cc4)CC3)c2c1C", "AC50": "> 26 µM (inactive)"}, {"smiles": "c1cc(-c2noc(CC3CCCCC3)n2)ccn1", "AC50": "> 26 µM (inactive)"}, {"smiles": "COCCNc1nc2c(c(=O)n(C)c(=O)n2C)n1Cc1cccc(C(F)(F)F)c1", "AC50": "> 26 µM (inactive)"}, {"smiles": "CC(C)(C)c1ccc(C2CC2C(=O)N/N=C\\c2ccc[nH]2)cc1", "note": "(stereo unspecified)", "AC50": "> 26 µM (inactive)"}, {"smiles": "O=C(c1cc2sccc2n1Cc1ccc(F)cc1)N1CCN(c2nc3ccccc3s2)CC1", "AC50": "> 26 µM (inactive)"}, {"smiles": "Cc1cc(C(C)(C)C)cc(C)c1Cn1c2[n+](c3ccc(C(F)(F)F)cc31)CCCCC2", "AC50": "> 26 µM (inactive)"}, {"smiles": "CCC1CCCCN1S(=O)(=O)c1ccc(NC(=O)c2nc(S(C)(=O)=O)ncc2Cl)cc1", "note": "(stereo unspecified)", "AC50": "> 26 µM (inactive)"}, {"smiles": "CC(C)C[C@H]1CN=C(Nc2ccccc2)N1CC1CCC(C(C)(C)C)CC1", "note": "(stereo partly specified)", "AC50": "> 26 µM (inactive)"}, {"smiles": "c1ccc(CNc2nc(NCc3ccccc3)c3ccccc3n2)cc1", "AC50": "> 26 µM (inactive)"}, {"smiles": "COc1cc(SC#N)ccc1N=Cc1c(C)[nH]n(-c2ccc(C)c(C)c2)c1=O", "AC50": "> 26 µM (inactive)"}, {"smiles": "Cc1ccc2oc(-c3ccc(NC(=O)c4cccnc4)cc3)nc2c1", "AC50": "> 26 µM (inactive)"}, {"smiles": "O=C1/C(=N\\S(=O)(=O)c2cccs2)C([n+]2ccc(CCCc3ccccc3)cc2)=C([O-])c2ccccc21", "AC50": "> 12 µM (inactive)"}, {"smiles": "CCCCCCCCCCOC(=O)Cn1c(COc2cccc(C)c2)[n+](C)c2ccccc21", "AC50": "> 26 µM (inactive)"}, {"smiles": "Cc1ccc(C#CC[N+]2(CC#Cc3ccc(C)cc3)CCCCC2)cc1", "AC50": "> 26 µM (inactive)"}, {"smiles": "Nc1nonc1-n1nnc(C(=O)N/N=C/c2cc(Br)ccc2O)c1CNc1ccccc1", "AC50": "> 26 µM (inactive)"}, {"smiles": "Cc1ccc(C(C)C)c(OCC(O)CN2CCc3ccccc3C2)c1", "note": "(stereo unspecified)", "AC50": "> 12 µM (inactive)"}, {"smiles": "Cc1ccc2nc(-c3cccc(-c4cccc(Cl)c4)c3)c(NCc3ccccc3)n2c1", "AC50": "> 26 µM (inactive)"}, {"smiles": "CCc1ccc(S(=O)(=O)/N=C2\\C=C(Nc3ccc(C(=O)O)cc3)C(=O)c3ccccc32)cc1", "AC50": "> 26 µM (inactive)"}, {"smiles": "CCN(CC)CCn1nc2c3c(cccc3c1=O)-c1ccccc1-2", "AC50": "8.24 µM"}, {"smiles": "COc1ccc(C(CCNCc2ccc(OC(C)C)cc2)c2ccccc2OC)cc1", "note": "(stereo unspecified)", "AC50": "> 26 µM (inactive)"}]}]}
